Data: ChEMBL document CHEMBL5360618, “PepScaf: Harnessing Machine Learning with In Vitro Selection toward De Novo Macrocyclic Peptides against IL-17C/IL-17RE Interaction” (J Med Chem, 2023)
Starred links: 1 amine or outer side, 2 acyl side, 3 side chain; linkers in the order of their positions; H or OH if unused. Positions of bridges follow the written chain, without caps; N, C: chain ends. Residues, ends and D or L forms follow the SMILES beside them. CO = O=C([*:1])[*:2]

Biological target: T1, IL17-RE-IL-17C (Homo sapiens, UniProt Q8NFR9+Q9P0M4)
T1 sequence (Q9P0M4 whole entry): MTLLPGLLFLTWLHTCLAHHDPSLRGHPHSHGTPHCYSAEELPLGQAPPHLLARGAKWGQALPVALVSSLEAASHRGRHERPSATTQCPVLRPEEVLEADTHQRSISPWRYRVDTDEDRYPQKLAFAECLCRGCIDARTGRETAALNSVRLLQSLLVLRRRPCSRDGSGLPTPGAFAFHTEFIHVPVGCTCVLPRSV
T1 sequence (Q8NFR9 whole entry): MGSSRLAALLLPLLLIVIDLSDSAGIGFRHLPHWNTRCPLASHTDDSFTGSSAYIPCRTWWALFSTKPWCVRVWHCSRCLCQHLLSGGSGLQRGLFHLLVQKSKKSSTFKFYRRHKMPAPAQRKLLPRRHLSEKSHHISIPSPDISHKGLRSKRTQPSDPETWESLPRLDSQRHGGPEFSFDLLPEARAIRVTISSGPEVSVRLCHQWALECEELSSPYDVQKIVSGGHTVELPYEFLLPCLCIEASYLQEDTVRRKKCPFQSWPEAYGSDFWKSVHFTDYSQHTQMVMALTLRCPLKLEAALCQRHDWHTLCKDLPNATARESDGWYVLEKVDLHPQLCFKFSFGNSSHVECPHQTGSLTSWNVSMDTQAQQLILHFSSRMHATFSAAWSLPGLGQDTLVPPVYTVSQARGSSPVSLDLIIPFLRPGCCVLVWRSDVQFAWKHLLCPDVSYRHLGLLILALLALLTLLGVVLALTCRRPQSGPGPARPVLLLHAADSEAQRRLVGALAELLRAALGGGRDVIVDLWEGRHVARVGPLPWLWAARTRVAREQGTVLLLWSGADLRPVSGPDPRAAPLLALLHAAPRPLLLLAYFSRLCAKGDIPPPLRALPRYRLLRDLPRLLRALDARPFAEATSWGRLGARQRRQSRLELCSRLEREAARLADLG
Experiment: Inhibition of IL-17C/IL-17RE interaction (unknown origin) incubated for 1.5 hrs by ELISA method
Type: protein-complex assay

Compound | IC50 [nM]
CC[C@H](C)[C@@H]1NC(=O)[C@H](Cc2cnc[nH]2)NC(=O)[C@H](Cc2ccc(O)cc2)NC(=O)CSC[C@@H](C(=O)NCC(N)=O)NC(=O)CNC(=O)[C@H](CC(C)C)NC(=O)[C@H](CO)NC(=O)CNC(=O)[C@H](Cc2ccc(O)cc2)NC(=O)[C@H](CC(C)C)NC(=O)[C@H](CO)NC(=O)[C@H](C)NC(=O)[C@H](Cc2ccc(O)cc2)NC(=O)[C@@H](Cc2ccc(O)cc2)NC1=O | 4.9
CC[C@H](C)[C@@H]1NC(=O)[C@H](CCCNC(=N)N)NC(=O)[C@H](Cc2ccc(O)cc2)NC(=O)[C@H](Cc2ccc(O)cc2)NC(=O)[C@H](Cc2c[nH]cn2)NC(=O)[C@H](Cc2c[nH]cn2)NC(=O)[C@H](Cc2ccc(O)cc2)NC(=O)CSC[C@@H](C(=O)NCC(N)=O)NC(=O)[C@H](CO)NC(=O)[C@H](CC(C)C)NC(=O)[C@H](CCC(=O)O)NC(=O)CNC(=O)[C@H](Cc2ccc(O)cc2)NC(=O)[C@H](CC(C)C)NC1=O (stereo in doubt) | > 30000
CC[C@H](C)[C@@H]1NC(=O)[C@H](CCCNC(=N)N)NC(=O)[C@H](Cc2ccc(O)cc2)NC(=O)[C@H](Cc2ccc(O)cc2)NC(=O)[C@H](Cc2c[nH]cn2)NC(=O)[C@H](C)NC(=O)[C@H](Cc2ccc(O)cc2)NC(=O)CSC[C@@H](C(=O)NCC(N)=O)NC(=O)CNC(=O)[C@H](CC(C)C)NC(=O)[C@H](CCC(=O)O)NC(=O)CNC(=O)[C@H](Cc2ccc(O)cc2)NC(=O)[C@H](CC(C)C)NC1=O ({CH2CO}-YAHYYRILYGELGCG-NH2; thioether N-14) | > 30000
CC[C@H](C)[C@@H]1NC(=O)[C@H](Cc2c[nH]c3ccccc23)NC(=O)[C@H](C)NC(=O)[C@H](CC(=O)O)NC(=O)[C@H](Cc2ccccc2)NC(=O)[C@H](Cc2c[nH]cn2)NC(=O)[C@H](Cc2ccc(O)cc2)NC(=O)CSC[C@@H](C(=O)NCC(N)=O)NC(=O)[C@H](CC(C)C)NC(=O)[C@H](CO)NC(=O)[C@H](CCCNC(=N)N)NC(=O)[C@H](C)NC1=O ({CH2CO}-YHFDAWIARSLCG-NH2; thioether N-12) | > 30000

More lines, now with the values ahead:

IC50 [nM] | Compound
2.9 | CC[C@H](C)[C@@H]1NC(=O)[C@H](Cc2c[nH]cn2)NC(=O)[C@H](Cc2ccc(O)cc2)NC(=O)CSC[C@@H](C(=O)NCC(N)=O)NC(=O)CNC(=O)[C@H](CC(C)C)NC(=O)[C@H]([C@H](C)O)NC(=O)CNC(=O)[C@H](Cc2ccc(O)cc2)NC(=O)[C@H](CC(C)C)NC(=O)[C@H](CO)NC(=O)[C@H](Cc2ccc(O)cc2)NC(=O)[C@H](Cc2ccc(O)cc2)NC(=O)[C@H](Cc2ccc(O)cc2)NC1=O
254 | CC(C)C[C@@H]1NC(=O)[C@H](C)NC(=O)[C@H](CCCNC(=N)N)NC(=O)[C@H](Cc2ccc(O)cc2)NC(=O)[C@H](Cc2ccc(O)cc2)NC(=O)[C@H](Cc2c[nH]cn2)NC(=O)[C@H](Cc2c[nH]cn2)NC(=O)[C@H](Cc2ccc(O)cc2)NC(=O)SC[C@@H](C(=O)NCC(N)=O)NC(=O)CNC(=O)[C@H](CC(C)C)NC(=O)[C@H](CCC(=O)O)NC(=O)CNC(=O)[C@H](Cc2ccc(O)cc2)NC1=O (YHHYYRALYGELGCG-NH2; linker N-14 via CO)
529 | CC[C@H](C)[C@@H]1NC(=O)[C@H](CCCNC(=N)N)NC(=O)[C@H](Cc2ccc(O)cc2)NC(=O)[C@H](Cc2ccc(O)cc2)NC(=O)C(C)NC(=O)[C@H](Cc2c[nH]cn2)NC(=O)[C@H](Cc2ccc(O)cc2)NC(=O)CSC[C@@H](C(=O)NCC(N)=O)NC(=O)CNC(=O)[C@H](CC(C)C)NC(=O)[C@H](CCC(=O)O)NC(=O)CNC(=O)[C@H](Cc2ccc(O)cc2)NC(=O)[C@H](CC(C)C)NC1=O (single isomer, unassigned)
> 30000 | CC(C)C[C@@H]1NC(=O)[C@H](Cc2c[nH]c3ccccc23)NC(=O)[C@H](Cc2ccccc2)NC(=O)[C@H](CC(N)=O)NC(=O)[C@H](Cc2ccc(O)cc2)NC(=O)[C@H](CO)NC(=O)[C@H](Cc2ccc(O)cc2)NC(=O)[C@H](CCCNC(=N)N)NC(=O)[C@H](CC(C)C)NC(=O)[C@H](CC(=O)O)NC(=O)[C@H](Cc2ccc(O)cc2)NC(=O)CSC[C@@H](C(=O)NCC(N)=O)NC(=O)[C@H](C)NC1=O ({CH2CO}-YDLRYSYNFWLACG-NH2; thioether N-13)
